Experimental data published in patent US5444061A, “Anti-cancer compounds” (British Technology Group Limited, priority 1991, dated 1995).

Tests used:
[1] = particularly in relation to the liver and kidneys; cited from earlier work
[2] = test system: human breast, ovarian and liver cancer; conditions: humans; cited from earlier work
L1210 cell line = assay: Inhibition of growth of the leukaemia cell line L1210 in cell culture; assay type: cell-based; conditions: Mus musculus
Text: The test may be similar to that described in UK Patent Specification No. 2065653B; and […]

[3] = In vivo stability to cleavage of the central amide linkage of the dipeptide (i.p., mice); parameters: species or system mouse (male C57/DBA2 F1 hybrid); conditions: 100 mg/kg i.p., 1 hour; for Stability (cleavage of the central amide linkage of the dipeptide): based on dipeptide and cleavage product found in plasma and liver
Protocol: In vivo tests in mice at a dosage of 100 mg/kg with various compounds according to the invention have shown a substantial lack of cleavage of the central amide linkage of the dipeptide as assessed by measurement of the amount of the cleavage product as a percentage of the total of parent compound and cleavage product present in the liver or plasma of a mouse sacrificed 1 hour after intraperitoneal administration of the dipeptide, i.e. cleavage was within the limit of experimental detection which is about 5%. Although a minor degree of cleavage of this amide linkage of the quinazoline is acceptable when it is used in practice, a level of cleavage on administration in vivo of less than 10% is preferred, with no more than about 5% being desirable, especially 2% or 1% or less.
The four compounds were also tested for in vivo stability to cleavage of the central amide linkage of the dipeptide. This test comprised injecting the compound intraperitoneally into male C57/DBA2 (F1 hybrid) mice at a standard dosage rate of 100 mg/kg, sacrificing the animals after 1 hour, removing the plasma, liver and kidneys, homogenising these individually in nine times the volume of 0.1 M Tris HCl at pH 10, precipitating the protein and analysing the product in 0.05 M NaHCO3 by hplc on a Sperisorb C-6 column eluting with acetonitrile/sodium acetate of pH 5.0. UV measurements at 280 and 313 nm were used to detect the dipeptide and the breakdown product of cleavage at the central amide bond of the dipeptide, i.e. the L-glutamic acid derivative or D-glutamic acid derivative. Identification of the parent compound and any breakdown product was effected by Rt comparisons against standard samples of these compounds which have been subjected to the same treatment as the liver, kidney and plasma samples.
The results obtained are shown in the Table, the identification of a compound which is "not cleaved" as compared with a compound which is "cleaved" being made on the basis of the amount of the dipeptide and its cleavage product found in the plasma and the liver.

MCF-7 cell line = assay: Inhibition of growth of the human breast cancer cell line MCF-7 in cell culture; assay type: cell-based; conditions: MCF7, MCF-7 cell culture, read-out: IC50 against the MCF-7 cell line
Text: The test may be similar to that described by Lippman et al (Cancer Res., 1976, 36, 4595).

SMILES	toxicity in humans [1]	activity against human breast, ovarian and liver cancer [2]	IC50 (L1210 cell line) [nM]	Stability (cleavage of the central amide linkage of the dipeptide) [3]	IC50 (MCF-7 cell line) [nM]	location of the remaining part of the parent dipeptide which was detected [3]	cleavage product in the liver, as a percentage of the total drug administered ([3]; liver, typical experiment)	parent dipeptide present in the liver, as a percentage of the total drug administered ([3]; liver, typical experiment) [%]	cleavage product accompanying the parent dipeptide in the plasma [3]
C#CCN(Cc1ccc2nc(N)[nH]c(=O)c2c1)c1ccc(C(=O)N[C@@H](CCC(=O)O)C(=O)O)cc1 [CB3717]	shows symptoms of toxicity in humans, particularly in relation to the liver and kidneys	promising activity against human breast, ovarian and liver cancer	–	–	–	–	–	–	–
C#CCN(Cc1ccc2nc(C)[nH]c(=O)c2c1)c1ccc(C(=O)N[C@H](CCC(=O)N[C@@H](CCC(=O)O)C(=O)O)C(=O)O)cc1 [D-glu-L-glu]	–	–	3400	cleaved	–	–	–	–	–
C#CCN(Cc1ccc2nc(C)nc(O)c2c1)c1ccc(C(=O)N[C@@H](CCC(=O)N[C@H](CCC(=O)O)C(=O)O)C(=O)O)cc1 [Example 1, N-p-[N-(3,4-Dihydro-2-methyl-4-oxoquinazolin-6-ylmethyl)-N-(prop-2-ynyl)amino]benzoyl-L-γ-glutamyl-D-glutamic acid]	–	–	180	not cleaved	300	found mostly in the plasma	no cleavage product	27±2	no cleavage product
C#CCN(Cc1ccc2nc(C)nc(O)c2c1)c1ccc(C(=O)N[C@H](CCC(=O)N[C@H](CCC(=O)O)C(=O)O)C(=O)O)cc1 [Example 10, N-p-[N-(3,4-dihydro-2-methyl-4-oxoquinazolin-6-ylmethyl)-N-(prop-2-ynyl)amino]benzoyl-D-γ-glutamyl-D-glutamic acid]	–	–	1300	not cleaved	–	–	–	–	–
C#CCN(Cc1ccc2nc(C)nc(O)c2c1)c1ccc(C(=O)N[C@@H](CCC(=O)N[C@@H](CCC(=O)O)C(=O)O)C(=O)O)cc1 [L-glu-L-glu]	–	–	100	cleaved	–	found mostly in the plasma	–	1.6±0.8	a significant amount of the cleavage product
